Source: PubChem BioAssay (NCI)
“And” between values parts separate entries of the source, which are not always exact repeats. Equal values may be shown once.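 Five compound concentrations were applied to cells in 96-well plates for 48 hours; endpoints were derived by simple linear interpolation of the resulting dose-response curve. The concentration for 50% growth inhibition is given as GI50. TGI: concentration producing complete growth inhibition.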

Assays:
Assay in all cases: NCI tumour cell line growth inhibition, 48 h
[1] = system: LOX IMVI melanoma
[2] = system: M14 melanoma
[3] = system: SF-539 CNS
[4] = system: MALME-3M melanoma
[5] = system: HCT-116 colon
[6] = system: 786-0 renal
[7] = system: EKVX NSCLC
[8] = system: HS 578T breast
[9] = system: TK-10 renal
[10] = system: NCI/ADR-RES ovarian

## C/C(=N/NC(=S)N1CCN(C(=S)N/N=C(/C)c2ccccn2)CC1)c1ccccn1
[1]
  TGI: > 100 µM
[2]
  TGI: 38.5 µM
[3]
  TGI: > 100 µM
[4]
  TGI: > 100 µM
[5]
  TGI: > 100 µM
[6]
  TGI: > 100 µM
[7]
  TGI: > 100 µM
[8]
  TGI: > 83.8 µM
[9]
  TGI: > 100 µM
[10]
  TGI: > 45.8 µM

## Cc1cc2nc(-c3c(N)ncc(C#N)c3-c3ccc(Cl)cc3)[nH]c2cc1C
[1]
  GI50: 5.83 µM
  TGI: 26 µM
[3]
  GI50: 2.07 µM
  TGI: 5.78 µM
[4]
  GI50: 14.5 µM
  TGI: 78.8 µM
[5]
  GI50: 3.47 µM
  TGI: 19.7 µM
[7]
  GI50: 14.4 µM
  TGI: 76.7 µM
[8]
  GI50: 12 µM
  TGI: > 100 µM
[9]
  GI50: 4.67 µM
  TGI: 21.3 µM
[10]
  GI50: 15.7 µM
  TGI: > 100 µM

## O=[N+]([O-])c1ccc2c(c1)n1c(N3CCCC3)[n+]3ccccc3c1c1c3cccc[n+]3c(N3CCCC3)n21
[1]
  TGI: > 100 µM
[2]
  TGI: > 100 µM
[3]
  TGI: > 100 µM
[4]
  TGI: > 100 µM
[5]
  TGI: > 100 µM
[6]
  TGI: > 100 µM
[7]
  TGI: > 100 µM
[8]
  TGI: > 100 µM
[9]
  TGI: > 100 µM
[10]
  TGI: > 100 µM

## COc1ccccc1NC(=S)N/N=C/c1ccccn1
[1]
  TGI: 6.8 µM
[2]
  TGI: 7.69 µM
[3]
  TGI: 5.07 µM
[4]
  TGI: > 24.3 µM
[5]
  TGI: 0.639 µM
[6]
  TGI: 13 µM
[7]
  TGI: 5.08 µM
[8]
  TGI: > 46.4 µM
[9]
  TGI: > 46.4 µM
[10]
  TGI: 0.237 µM

## Clc1nc2c(C#Cc3ccccc3)ncnc2n1C1CCCCO1 (stereo not given)
[1]
  TGI: 30.7 µM
[2]
  TGI: 25.9 µM
[3]
  TGI: 42.2 µM
[4]
  TGI: 41.7 µM
[5]
  TGI: 21.7 µM
[6]
  TGI: 25.3 µM
[7]
  TGI: 12.4 µM
[8]
  TGI: 99.5 µM
[9]
  TGI: 53 µM
[10]
  TGI: > 100 µM

## COc1cc(S(=O)(=O)Nc2ccc(-c3csc(/N=C\c4ccccc4)n3)cc2)ccc1Cl
[1]
  TGI: > 100 µM
[2]
  TGI: > 100 µM
[3]
  TGI: > 100 µM
[4]
  TGI: > 100 µM
[5]
  TGI: > 100 µM
[6]
  TGI: > 100 µM
[7]
  TGI: > 100 µM
[8]
  TGI: > 100 µM
[10]
  TGI: > 100 µM

## O=[N+]([O-])c1cc(F)ccc1Sc1ccccc1
[1]
  TGI: > 10 µM
[2]
  TGI: > 10 µM
[3]
  TGI: > 10 µM
[4]
  TGI: > 10 µM
[5]
  TGI: > 10 µM
[6]
  TGI: > 10 µM
[7]
  TGI: > 10 µM
[8]
  TGI: > 10 µM
[9]
  TGI: > 10 µM
[10]
  TGI: > 10 µM

## COc1cc(CNC(=S)CCCCCCCCCCC(C)C)ccc1O
[1]
  TGI: > 100 µM
[2]
  TGI: > 100 µM
[3]
  TGI: > 100 µM
[4]
  TGI: > 100 µM
[5]
  TGI: > 100 µM
[6]
  TGI: > 100 µM
[7]
  TGI: > 100 µM
[8]
  TGI: 83.7 µM
[9]
  TGI: > 100 µM
[10]
  TGI: > 100 µM

## CCN(CC)C1Oc2cc3c(cc2C(c2cc(OC)c(OC)c(OC)c2)C1C)OCO3 (stereo not given)
[1]
  TGI: > 48.8 µM
[2]
  TGI: > 37.9 µM
[3]
  TGI: 1.43 µM
[4]
  TGI: > 64 µM
[5]
  TGI: 13.4 µM
[6]
  TGI: > 40.6 µM
[7]
  TGI: > 75.5 µM
[8]
  TGI: > 100 µM
[9]
  TGI: > 72.1 µM
[10]
  TGI: 0.771 µM

## COC(=O)C1CC23C=CCN4CC(C2C)C2(c5ccccc5NC12)C43 (stereo not given)
[1]
  TGI: > 100 µM
[2]
  TGI: > 100 µM
[3]
  TGI: > 100 µM
[4]
  TGI: > 100 µM
[5]
  TGI: > 100 µM
[6]
  TGI: > 100 µM
[7]
  TGI: > 100 µM
[8]
  TGI: > 100 µM
[9]
  TGI: > 100 µM
[10]
  TGI: > 100 µM

## COC1(OC)C=CC(=O)C=C1
[1]
  TGI: 2.91 µM
[2]
  TGI: 11.5 µM
[3]
  TGI: 11.8 µM
[5]
  TGI: 2.77 µM
[6]
  TGI: 4.55 µM
[7]
  TGI: 21.9 µM
[8]
  TGI: > 40.5 µM
[9]
  TGI: 7.67 µM
[10]
  TGI: 13.7 µM

## Nc1ccc2c(c1)NC(=O)[C@@H]1CCCN1C2=O
[1]
  TGI: > 100 µM
[2]
  TGI: > 100 µM
[3]
  TGI: > 100 µM
[5]
  TGI: > 100 µM
[6]
  TGI: > 100 µM
[7]
  TGI: > 100 µM
[8]
  TGI: > 100 µM
[9]
  TGI: > 100 µM
[10]
  TGI: > 100 µM

## C=C(C)[C@@H]1CC[C@]2(CO)CC[C@]3(C)[C@H](CC[C@@H]4[C@@](C)(CCCN)[C@H](C(=C)C)CC[C@]43C)[C@@H]12
[3]
  GI50: 1.63 µM
  TGI: 2.99 µM
[5]
  GI50: 1.4 µM
  TGI: 3.02 µM
[9]
  GI50: 1.77 µM
  TGI: 3.39 µM

## Cn1c(=O)n(CC2CS2)c2ccccc21 (stereo not given)
[1]
  TGI: > 100 µM
[2]
  TGI: > 100 µM
[3]
  TGI: > 100 µM
[4]
  TGI: > 100 µM
[5]
  TGI: > 100 µM
[7]
  TGI: > 100 µM
[9]
  TGI: > 100 µM

## N#C/C(C(=O)Nc1ccccc1)=C(/N)N1CCCCC1
[1]
  TGI: > 100 µM
[2]
  TGI: > 100 µM
[3]
  TGI: > 100 µM
[5]
  TGI: > 100 µM
[6]
  TGI: > 100 µM
[7]
  TGI: > 100 µM
[10]
  TGI: > 100 µM

## COC(=O)c1cc(C)ccc1/C=C1\Cc2c(C)cc(C)cc2C1=O
[1]
  TGI: > 100 µM
[2]
  TGI: > 100 µM
[3]
  TGI: 42.3 µM
[4]
  TGI: > 100 µM
[5]
  TGI: > 100 µM
[6]
  TGI: 40.6 µM
[7]
  TGI: > 88.4 µM
[8]
  TGI: 42.9 µM
[9]
  TGI: 40 µM
[10]
  TGI: > 100 µM

## CCC1(OC(=O)CN)C(=O)OCc2c1cc1n(c2=O)Cc2cc3cc4c(cc3nc2-1)OCO4 (stereo not given)
[1]
  GI50: < 0.01 µM
  TGI: 0.155 µM and 0.106 µM
[3]
  GI50: < 0.01 µM
  TGI: 0.0161 µM and 0.0165 µM
[4]
  GI50: 0.287 µM
  TGI: 1.42 µM
[7]
  GI50: 0.0106 µM
  TGI: 0.495 µM
[10]
  GI50: < 0.01 µM
  TGI: 0.231 µM and 0.0889 µM

## CC(C)(CN1CCCCC1)C(/C=C/c1ccccc1)=N\NC(=O)N/N=C(/C=C/c1ccccc1)C(C)(C)CN1CCCCC1
[1]
  TGI: 3.32 µM
[2]
  TGI: 3.19 µM
[4]
  TGI: 3.7 µM
[5]
  TGI: 2.93 µM
[6]
  TGI: 2.78 µM
[7]
  TGI: 20.7 µM
[8]
  TGI: 5.92 µM
[9]
  TGI: 3.36 µM
[10]
  TGI: 4.01 µM

## Cc1nc(Nc2nc3ccccc3[nH]2)nc(Cl)c1CCCl
[2]
  TGI: > 100 µM
[3]
  TGI: > 100 µM
[4]
  TGI: > 100 µM
[5]
  TGI: > 100 µM
[6]
  TGI: > 100 µM
[7]
  TGI: > 100 µM
[8]
  TGI: > 100 µM
[9]
  TGI: > 100 µM
[10]
  TGI: > 100 µM

## COc1ccc(NC(=O)CC(=O)N2N=C(N(c3ccccc3)c3ccccc3)CC2c2ccccc2)cc1 (stereo not given)
[1]
  TGI: > 100 µM
[2]
  TGI: > 100 µM
[3]
  TGI: > 100 µM
[5]
  TGI: > 100 µM
[6]
  TGI: > 100 µM
[7]
  TGI: > 100 µM
[8]
  TGI: > 100 µM
[9]
  TGI: > 100 µM
[10]
  TGI: > 100 µM
